In patent EP3929178B1, “CRYSTAL FORM OF VALNEMULIN HYDROCHLORIDE HYDRATE, PREPARATION METHOD THEREFOR, AND PHARMACEUTICAL COMPOSITION CONTAINING CRYSTAL FORM” (Hubei Longxiang Pharmaceutical Co., Ltd., priority 2019, dated 2020):
Counter-ions that a name gives are not always drawn. Like-named read-outs stand apart in the source and are kept apart here.

Tests used:
[1] = reported for CN108892629A; cited from earlier work
[2] = Influencing factor (stability) experiments on crystal forms under temperature and humidity; assay type: physicochemical; settings: for content before placement: before placement (baseline of the stability study)
Experimental: Conditions for purity detection by High Performance Liquid Chromatography (HPLC): octadecylsilane-bonded silica gel was used as filler (150 mm×4.6 mm, 3 µm); mobile phase A was phosphate buffer (pH 2.5); mobile phase B was phosphate buffer (pH 2.5)-acetonitrile (25:75); the flow rate was 1.5 ml per minute; the column temperature was 50 °C; and the detection wavelength was 200 nm. Linear gradient elution was performed according to the following table.
Table 1 Comparative study on stability of valnemulin hydrochloride hydrate, amorphous substance and the comparative crystal form

[3] = Hygroscopicity experiments; assay type: physicochemical
From the text: (§1) Table 1 Comparative study on stability of valnemulin hydrochloride hydrate, amorphous substance and the comparative crystal form The hydrate crystal and the amorphous substance and the crystal form of patent CN104876841B were compared in terms of bulk density, solubility, ect, as shown in the following table. Table 2 Physicochemical properties comparison of the valnemulin hydrochloride hydrate, the amorphous substance and the Comparative Example

[4] = Bulk density comparison; assay type: physicochemical
From the text: as §1, with “The” for “Table 1 Comparative study on stability of valnemulin hydrochloride hydrate, amorphous substance and the comparative crystal form The”

[5] = Loss on granulation of aqueous solutions of amorphous product; assay type: physicochemical; settings: granulated at 75 °C
From the text: For solid drugs, different solid forms will have an important impact on physical and chemical properties such as stability, solubility, dissolution rate, bulk density and fluidity, resulting in different efficacy and bioavailability during use. Therefore, for solid pharmaceutical products, the development of different solid forms is more conducive to choosing a suitable crystal form according to the characteristics of the pharmaceutical preparation. For valnemulin hydrochloride products, compared with crystalline products, the amorphous products have problems such as poor stability, easy hygroscopicity, poor appearance, poor fluidity, and difficult storage. At the same time, aqueous solutions of amorphous valnemulin hydrochloride products are unstable during preparation process. Experiments have shown that 11.6% loss is caused when granulated at 75 °C. Therefore, there is an urgent need to develop a stable valnemulin hydrochloride crystal product to meet market demand for veterinary drugs. […] There are very few reports on the crystal form of valnemulin hydrochloride and preparation method thereof.

[6] = 25 °C, 90% relative humidity, placed for 30 days, listed as The crystal form of valnemulin hydrochloride hydrate (Example 1), hydrochloride hydrate
[7] = 40 °C, 75% relative humidity, placed for 30 days
[8] = 40 °C, 75% relative humidity, placed for 30 days, listed as The crystal form of valnemulin hydrochloride hydrate (Example 1), hydrochloride hydrate
[9] = 60 °C, 75% relative humidity, placed for 30 days
[10] = 60 °C, 75% relative humidity, placed for 30 days, listed as The crystal form of valnemulin hydrochloride hydrate (Example 1), hydrochloride hydrate
[11] = 60 °C, placed in normal humidity for 30 days, listed as The crystal form of valnemulin hydrochloride hydrate (Example 1), hydrochloride hydrate
[12] = compared with the original amorphous product
[13] = 25 °C, 90% relative humidity, placed for 30 days, hydrochloride
[14] = 40 °C, 75% relative humidity, placed for 30 days, hydrochloride
[15] = 60 °C, 75% relative humidity, placed for 30 days, hydrochloride
[16] = 60 °C, placed in normal humidity for 30 days, hydrochloride

## C=C[C@]1(C)C[C@@H](OC(=O)CSC(C)(C)CNC(=O)[C@H](N)C(C)C)[C@]2(C)[C@H](C)CC[C@]3(CCC(=O)[C@H]32)[C@@H](C)[C@@H]1O [solvent-free compound, valnemulin hydrochloride]
[1]
  Bulk density: 0.305 g/mL

## C=C[C@]1(C)C[C@@H](OC(=O)CSC(C)(C)CNC(=O)[C@H](N)C(C)C)[C@]2(C)[C@H](C)CC[C@]3(CCC(=O)[C@H]32)[C@@H](C)[C@@H]1O [Example 1, valnemulin hydrochloride hydrate]
[2]; [6]
  Appearance change: White solid
  Content after placement (%): 99.23%
  Crystal form change: No change
[2]; [7]
  Crystal form change: No change
[2]; [8]
  Appearance change: White solid
  Content after placement (%): 99.20%
[2]; [9]
  Crystal form change: No change
[2]; [10]
  Appearance change: White solid
  Content after placement (%): 98.78%
[2]; [11]
  Appearance change: White solid
  Content after placement (%): 98.47%
  Crystal form change: No
[2]; hydrochloride hydrate
  content before placement: 99.25%
[2]; [12]
  stability: enhanced stability
[2]; summary in words of Table 1
  stability: stable
[3]; [6]
  With or without hygroscopicity: Without hygroscopic ity
[3]; [8]
  With or without hygroscopicity: Without hygroscopic ity
[3]; [10]
  With or without hygroscopicity: Without hygroscopic ity
[3]; [11]
  With or without hygroscopicity: Without
[3]; Table 2, listed as The crystal form of valnemulin hydrochloride hydrate (Example 1), hydrochloride hydrate
  hygroscopicity: 0%
[3]; [12]
  hygroscopicity: no hygroscopicity
[4]; [12]
  Bulk density: large bulk density
[4]; listed as The crystal form of valnemulin hydrochloride hydrate (Example 1), hydrochloride hydrate
  Bulk density: 0.596 g/mL

## C=C[C@]1(C)C[C@@H](OC(=O)CSC(C)(C)CNC(=O)[C@H](N)C(C)C)[C@]2(C)[C@H](C)CC[C@]3(CCC(=O)[C@H]32)[C@@H](C)[C@@H]1O [The crystal form of Comparative Example, valnemulin hydrochloride]
[2]; [13]
  Appearance change: White solid
  Content after placement (%): 99.21%
  Crystal form change: Slight change
[2]; [7]
  Crystal form change: No change
[2]; [14]
  Appearance change: White solid
  Content after placement (%): 99.18%
[2]; [9]
  Crystal form change: No change
[2]; [15]
  Appearance change: Light yellow solid
  Content after placement (%): 98.69%
[2]; [16]
  Appearance change: Light yellow solid
  Content after placement (%): 98.39%
  Crystal form change: No change
[3]; [13]
  With or without hygroscopicity: Slightly
[3]; [14]
  With or without hygroscopicity: Slightly
[3]; [15]
  With or without hygroscopicity: Slightly
[3]; [16]
  With or without hygroscopicity: Slightly
[3]; Table 2, hydrochloride
  hygroscopicity: 1.015%
[3]; summary in words of Table 1, listed as The crystal form of patent CN104876841B, hydrochloride
  hygroscopicity: slightly hygroscopic
[4]; hydrochloride
  Bulk density: 0.636 g/mL

## C=C[C@]1(C)C[C@@H](OC(=O)CSC(C)(C)CNC(=O)[C@H](N)C(C)C)[C@]2(C)[C@H](C)CC[C@]3(CCC(=O)[C@H]32)[C@@H](C)[C@@H]1O [The amorphous substance of valnemulin hydrochloride]
[2]; [13]
  Appearance change: Yellow transparent viscous solid
  Content after placement (%): 94.56%
[2]; [14]
  Appearance change: Yellow transparent viscous solid
  Content after placement (%): 90.82%
[2]; [15]
  Appearance change: Yellow
  Content after placement (%): 86.12%
[2]; [16]
  Appearance change: Yellow solid
  Content after placement (%): 89.18%
[2]; listed as valnemulin hydrochloride amorphous substance, hydrochloride
  content before placement: 97.50%
[3]; [13]
  With or without hygroscopicity: Severe hygroscopic ity
[3]; [14]
  With or without hygroscopicity: Severe hygroscopic ity
[3]; [15]
  With or without hygroscopicity: Severe hygroscopic ity
[3]; [16]
  With or without hygroscopicity: Hygroscopi city
[3]; Table 2, hydrochloride
  hygroscopicity: 8.86%
[3]; summary in words of Table 1, hydrochloride
  hygroscopicity: absorbed moisture severely
[4]; hydrochloride
  Bulk density: 0.338 g/mL
[5]
  loss when granulated: 11.6%
